Experimental data reported in patent US20150094474A1, “AGRICULTURAL CHEMICALS” (Redx Pharma Ltd., priority 2012, published 2015).

What was measured:
[1] = system: peas; assay: Herbicidal bioassay, peas (% necrosis); format: in vivo
How it was run: (§1)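 Scoring of % necrosis followed EPPO guideline PP1/135 at specified growth intervals, five replicates per species and treatment. Plants at the 2-4 true leaf stage received Potter-tower sprays of DMSO-diluted compounds across six levels from 0.0001% to 0.05%, with water and DMSO controls.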

[2] = system: barley; assay: Herbicidal bioassay, barley (% necrosis); format: in vivo
How it was run: as §1

CC(/C=N/OCc1ccccc1)Oc1ccc(Oc2ccc(C(F)(F)F)cn2)cc1 (stereo not drawn) [Compound 65, N-Benzyloxy-2-[4-[[5-(trifluoromethyl)-2-pyridyl]oxy]phenoxy]propan-1-imine]
C (less than 50% necrosis): Sum of % necrosis in Peas ([1]; Dose 0.000001, Day 0) | Sum of % necrosis in Peas ([1]; Dose 0.000001, Day 1) | Sum of % necrosis in Peas ([1]; Dose 0.000001, Day 3) | Sum of % necrosis in Peas ([1]; Dose 0.000001, Day 7) | Sum of % necrosis in Peas ([1]; Dose 0.000001, Day 10) | Sum of % necrosis in Peas ([1]; Dose 0.000001, Day 14) | Sum of % necrosis in Peas ([1]; Dose 0.000005, Day 0) | Sum of % necrosis in Peas ([1]; Dose 0.000005, Day 1) | Sum of % necrosis in Peas ([1]; Dose 0.000005, Day 3) | Sum of % necrosis in Peas ([1]; Dose 0.000005, Day 7) | Sum of % necrosis in Peas ([1]; Dose 0.000005, Day 10) | Sum of % necrosis in Peas ([1]; Dose 0.000005, Day 14) | Sum of % necrosis in Peas ([1]; Dose 0.00001, Day 0) | Sum of % necrosis in Peas ([1]; Dose 0.00001, Day 1) | Sum of % necrosis in Peas ([1]; Dose 0.00001, Day 3) | Sum of % necrosis in Peas ([1]; Dose 0.00001, Day 7) | Sum of % necrosis in Peas ([1]; Dose 0.00001, Day 10) | Sum of % necrosis in Peas ([1]; Dose 0.00001, Day 14) | Sum of % necrosis in Peas ([1]; Dose 0.00005, Day 0) | Sum of % necrosis in Peas ([1]; Dose 0.00005, Day 1) | Sum of % necrosis in Peas ([1]; Dose 0.00005, Day 3) | Sum of % necrosis in Peas ([1]; Dose 0.00005, Day 7) | Sum of % necrosis in Peas ([1]; Dose 0.00005, Day 10) | Sum of % necrosis in Peas ([1]; Dose 0.00005, Day 14) | Sum of % necrosis in Peas ([1]; Dose 0.0001, Day 0) | Sum of % necrosis in Peas ([1]; Dose 0.0001, Day 1) | Sum of % necrosis in Peas ([1]; Dose 0.0001, Day 3) | Sum of % necrosis in Peas ([1]; Dose 0.0001, Day 7) | Sum of % necrosis in Peas ([1]; Dose 0.0001, Day 10) | Sum of % necrosis in Peas ([1]; Dose 0.0001, Day 14) | Sum of % necrosis in Peas ([1]; Dose 0.0005, Day 0) | Sum of % necrosis in Peas ([1]; Dose 0.0005, Day 1) | Sum of % necrosis in Peas ([1]; Dose 0.0005, Day 3) | Sum of % necrosis in Peas ([1]; Dose 0.0005, Day 7) | Sum of % necrosis in Peas ([1]; Dose 0.0005, Day 10) | Sum of % necrosis in Peas ([1]; Dose 0.0005, Day 14) | Sum of % necrosis in barley ([2]; Dose 0.000001, Day 0) | Sum of % necrosis in barley ([2]; Dose 0.000001, Day 1) | Sum of % necrosis in barley ([2]; Dose 0.000001, Day 3) | Sum of % necrosis in barley ([2]; Dose 0.000001, Day 7) | Sum of % necrosis in barley ([2]; Dose 0.000001, Day 10) | Sum of % necrosis in barley ([2]; Dose 0.000001, Day 14) | Sum of % necrosis in barley ([2]; Dose 0.000005, Day 0) | Sum of % necrosis in barley ([2]; Dose 0.000005, Day 1) | Sum of % necrosis in barley ([2]; Dose 0.000005, Day 3) | Sum of % necrosis in barley ([2]; Dose 0.000005, Day 7) | Sum of % necrosis in barley ([2]; Dose 0.000005, Day 10) | Sum of % necrosis in barley ([2]; Dose 0.000005, Day 14) | Sum of % necrosis in barley ([2]; Dose 0.00001, Day 0) | Sum of % necrosis in barley ([2]; Dose 0.00001, Day 1) | Sum of % necrosis in barley ([2]; Dose 0.00001, Day 3) | Sum of % necrosis in barley ([2]; Dose 0.00001, Day 7) | Sum of % necrosis in barley ([2]; Dose 0.00001, Day 10) | Sum of % necrosis in barley ([2]; Dose 0.00001, Day 14) | Sum of % necrosis in barley ([2]; Dose 0.00005, Day 0) | Sum of % necrosis in barley ([2]; Dose 0.00005, Day 1) | Sum of % necrosis in barley ([2]; Dose 0.00005, Day 3) | Sum of % necrosis in barley ([2]; Dose 0.00005, Day 7) | Sum of % necrosis in barley ([2]; Dose 0.00005, Day 10) | Sum of % necrosis in barley ([2]; Dose 0.00005, Day 14) | Sum of % necrosis in barley ([2]; Dose 0.0001, Day 0) | Sum of % necrosis in barley ([2]; Dose 0.0001, Day 1) | Sum of % necrosis in barley ([2]; Dose 0.0001, Day 3) | Sum of % necrosis in barley ([2]; Dose 0.0001, Day 7) | Sum of % necrosis in barley ([2]; Dose 0.0001, Day 10) | Sum of % necrosis in barley ([2]; Dose 0.0001, Day 14) | Sum of % necrosis in barley ([2]; Dose 0.0005, Day 0) | Sum of % necrosis in barley ([2]; Dose 0.0005, Day 1) | Sum of % necrosis in barley ([2]; Dose 0.0005, Day 3) | Sum of % necrosis in barley ([2]; Dose 0.0005, Day 7) | Sum of % necrosis in barley ([2]; Dose 0.0005, Day 10) | Sum of % necrosis in barley ([2]; Dose 0.0005, Day 14)
